Test results taken from article PMC8452690, “Structural basis for small molecule targeting of Doublecortin Like Kinase 1 with DCLK1-IN-1” (Communications Biology, 2021).

Molecular target: T1, DCLK1-FL1Δ D511N tubulin polymerisation (MAP function) (Homo sapiens, UniProt O15075, D511N)
T1 construct: DCLK1-FL1Δ (residues 50-686); 8XHis tag with TEV protease cleavage site (N); made in house; host or cells: Escherichia coli C41(DE3)
T1 sequence (O15075 50-686 isoform O15075-2 D511N): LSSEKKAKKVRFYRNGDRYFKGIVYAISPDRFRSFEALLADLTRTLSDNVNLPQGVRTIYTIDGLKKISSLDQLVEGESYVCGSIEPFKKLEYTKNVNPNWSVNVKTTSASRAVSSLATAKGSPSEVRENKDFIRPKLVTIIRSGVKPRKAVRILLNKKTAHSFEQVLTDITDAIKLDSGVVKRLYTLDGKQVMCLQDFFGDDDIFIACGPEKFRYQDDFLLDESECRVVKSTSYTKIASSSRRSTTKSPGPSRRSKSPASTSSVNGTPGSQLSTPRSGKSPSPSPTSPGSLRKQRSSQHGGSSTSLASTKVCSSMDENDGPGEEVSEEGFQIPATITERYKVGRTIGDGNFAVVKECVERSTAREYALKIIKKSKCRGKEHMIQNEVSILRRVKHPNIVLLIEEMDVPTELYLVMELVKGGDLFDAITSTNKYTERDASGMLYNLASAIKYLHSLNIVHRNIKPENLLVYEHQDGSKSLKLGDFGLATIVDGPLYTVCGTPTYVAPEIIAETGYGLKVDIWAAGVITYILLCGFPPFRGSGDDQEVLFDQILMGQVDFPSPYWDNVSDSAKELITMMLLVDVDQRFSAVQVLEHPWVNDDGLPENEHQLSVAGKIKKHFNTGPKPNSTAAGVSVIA
Test: Fluorescence-based Tubulin Polymerisation Assay with DCLK1-FL1Δ D511N
Format: biochemical
Conditions: 20 μM or 40 μM, fluorescence (Fig. 5e)
Protocol: Tubulin polymerisation assay were performed using the Microtubule Polymerisation/Depolymerisation Fluorescence Kit (Cytoskeleton #BK011P) in accordance with the manufacturer’s instructions. DCLK1 (4 μΜ) was added to 50 μL tubulin reaction mix containing Buffer 1 (80 mM PIPES at pH 6.9, 2.0 mM MgCl2, 0.5 mM EGTA, 10 μM fluorescent reporter), guanosine triphosphate stock solution at 100 mM, and tubulin (10 mg/ml) stock solution, as described by the manufacturer. Paclitaxel, a control of tubulin polymerisation, was tested at 3 μM, and Νocodazole, a tubulin polymerisation inhibitor, was tested at 80 μΜ. DCLK1-IN-1 was tested at 20 and 40 μΜ with buffer alone as controls. Polymerisation leads to fluorescence enhancement due to incorporation of a fluorescence reporter into polymerising microtubules and was measured by excitation at 355 nm and emission at 460 nm. Readings were taken every 20 s on EnVision Multimode Plate Reader. Each condition was tested in duplicate with two independent batches of protein.

effect on DCLK1-FL1Δ D511N ability to polymerise tubulin: did not impact
SMILES: COc1cc(N2CCN(C)CC2)ccc1Nc1ncc2c(n1)N(C)c1ccccc1C(=O)N2CC(F)(F)F [DCLK1-IN-1]
